Results published in patent publication US12281149B2, “Modulators of G-protein coupled receptors” (priority 2021, dated 2025).
*1 amine or outer side, *2 acyl side, *3 side chain or, on linkers, in order; H or OH if unused. Where a SMILES comes first, the peptide text is derived from it. Side-chain parts run from the residue outwards. [ ]: non-standard residue; d: D form. The star is where a group is joined. C20 diacid = O=C(O)CCCCCCCCCCCCCCCCCCC(=O)*; γGlu = O=C(O)[C@H](CCC(=O)[*:2])N[*:1]; X42 = CCOc1cnn(C(C)(C)C(=O)*)c1; AEEA = NCCOCCOCC(=O)O; Aib = CC(C)(N)C(=O)O; βAla = NCCC(=O)O

Legend:
Type in all cases: cell-based
GIP receptor [1] = molecular target: T1, GIP receptor (Homo sapiens, UniProt P48546); assay: PathHunter β-arrestin assay, GIP receptor; set-up: host or cells: PathHunter CHO-K1 GIPR β-Arrestin Cell Line; conditions: β-arrestin-2 recruitment, PathHunter CHO-K1 GIPR β-Arrestin Cell Line, 90 min at 37° C.; normalized to GIP; read-out: GIPR β Arrestin EC50
T1 sequence (P48546 22-466): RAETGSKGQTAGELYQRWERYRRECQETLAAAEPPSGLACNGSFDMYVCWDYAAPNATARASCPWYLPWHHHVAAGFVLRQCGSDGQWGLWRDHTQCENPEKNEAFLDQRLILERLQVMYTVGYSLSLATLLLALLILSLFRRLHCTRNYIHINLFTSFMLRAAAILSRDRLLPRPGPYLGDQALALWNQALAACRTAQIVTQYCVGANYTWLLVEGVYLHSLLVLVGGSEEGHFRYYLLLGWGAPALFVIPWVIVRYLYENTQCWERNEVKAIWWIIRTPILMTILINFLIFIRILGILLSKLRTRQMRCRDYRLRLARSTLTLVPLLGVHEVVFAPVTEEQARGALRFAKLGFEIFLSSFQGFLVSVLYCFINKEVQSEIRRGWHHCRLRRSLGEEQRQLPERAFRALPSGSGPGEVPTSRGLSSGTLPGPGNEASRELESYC

GIP receptor [2] = molecular target: T1, GIP receptor; assay: HitHunter cAMP assay, GIP receptor; conditions: for EC50: CHO cells stably expressing GIP receptor, cAMP accumulation, 30 min, read-out: EC50 GIP-1R; for Emax: CHO cells, cAMP, normalized to maximum signal from GIP (high) and DMSO (low), read-out: Emax GIP-1R
GLP-1 receptor [3] = molecular target: T2, GLP-1 receptor (Homo sapiens, UniProt P43220); assay: HitHunter cAMP assay, GLP-1 receptor; conditions: for EC50: CHO cells stably expressing human GLP-1 receptor, cAMP accumulation, 30 min, read-out: EC50 GLP-1R; for Emax: CHO cells, cAMP, normalized to maximum signal from GLP-1 (high) and DMSO (low), read-out: Emax GLP-1R
T2 sequence (P43220 24-463): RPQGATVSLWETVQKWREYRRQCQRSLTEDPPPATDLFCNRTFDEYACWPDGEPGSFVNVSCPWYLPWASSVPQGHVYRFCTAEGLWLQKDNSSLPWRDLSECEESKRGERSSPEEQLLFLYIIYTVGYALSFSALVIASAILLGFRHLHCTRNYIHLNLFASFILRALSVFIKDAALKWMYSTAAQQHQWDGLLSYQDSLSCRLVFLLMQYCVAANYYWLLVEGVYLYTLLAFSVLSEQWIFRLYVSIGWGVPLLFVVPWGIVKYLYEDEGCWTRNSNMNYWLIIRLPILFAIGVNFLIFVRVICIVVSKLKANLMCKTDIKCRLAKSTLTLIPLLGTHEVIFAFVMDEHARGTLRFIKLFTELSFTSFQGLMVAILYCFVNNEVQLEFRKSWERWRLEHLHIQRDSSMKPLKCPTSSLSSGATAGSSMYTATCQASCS

GLP-1 receptor [4] = molecular target: T2, GLP-1 receptor; assay: PathHunter β-arrestin assay, GLP-1 receptor; set-up: host or cells: PathHunter CHO-K1 GLP1R β-Arrestin Cell Line; conditions: β-arrestin-2 recruitment, PathHunter CHO-K1 GLP1R β-Arrestin Cell Line, 90 min at 37° C.; normalized to GLP-1; read-out: GLP-1R β Arrestin EC50

SMILES | EC50 (GIP receptor [1]) | EC50 (GIP receptor [2]) | Emax (GIP receptor [2]) | EC50 (GLP-1 receptor [3]) | Emax (GLP-1 receptor [3]) | EC50 (GLP-1 receptor [4])
CCOc1cnn(C(C)(C)C(=O)NCCC(=O)N[C@@H](CCC(=O)O)C(=O)NCC(=O)N[C@H](C(=O)N[C@@H](Cc2ccccc2)C(=O)N[C@H](C(=O)N[C@@H](CO)C(=O)N[C@@H](CC(=O)O)C(=O)N[C@@H](Cc2ccc(O)cc2)C(=O)N[C@@H](CO)C(=O)N[C@H](C(=O)NC(C)(C)C(=O)N[C@@H](CC(C)C)C(=O)N[C@@H](CC(=O)O)C(=O)N[C@@H](CCCCN)C(=O)N[C@H](C(=O)N[C@@H](C)C(=O)N[C@@H](CCC(N)=O)C(=O)N[C@@H](CCCCNC(=O)COCCOCCNC(=O)COCCOCCNC(=O)CC[C@H](NC(=O)CCCCCCCCCCCCCCCCCCC(=O)O)C(=O)O)C(=O)N[C@@H](C)C(=O)N[C@@H](Cc2ccccc2)C(=O)N[C@H](C(=O)N[C@@H](CCC(N)=O)C(=O)N[C@@H](Cc2c[nH]c3ccccc23)C(=O)N[C@@H](CC(C)C)C(=O)N[C@H](C(=O)N[C@@H](C)C(=O)NCC(=O)NCC(=O)N2CCC[C@H]2C(=O)N[C@@H](CO)C(=O)N[C@@H](CO)C(=O)NCC(=O)N[C@@H](C)C(=O)N2CCC[C@H]2C(=O)N2CCC[C@H]2C(=O)N2CCC[C@H]2C(=O)N[C@@H](CO)C(N)=O)[C@@H](C)CC)C(C)C)[C@@H](C)CC)[C@@H](C)CC)[C@@H](C)O)[C@@H](C)O)c1 [Compound 152] ({X42-βAla}-EGTFTSDYSI[Aib]LDKIAQK([AEEA-AEEA-γGlu-C20 diacid])AFVQWLIAGGPSSGAPPPS-NH2) | > 1 µM | 0.01 to 0.1 µM | 104% | 0.0001 to 0.001 µM | 98% | > 1 µM
CC[C@H](C)[C@H](NC(=O)[C@H](CO)NC(=O)[C@H](Cc1ccc(O)cc1)NC(=O)[C@H](CC(=O)O)NC(=O)[C@H](CO)NC(=O)[C@@H](NC(=O)[C@H](Cc1ccccc1)NC(=O)[C@@H](NC(=O)CNC(=O)[C@H](CCC(=O)O)NC(=O)CCNC(=O)C1(c2ccccc2)CCC(=O)NC1)[C@@H](C)O)[C@@H](C)O)C(=O)N[C@@H](Cc1ccc(O)cc1)C(=O)N[C@@H](CC(C)C)C(=O)N[C@@H](CC(=O)O)C(=O)N[C@@H](CCCCN)C(=O)N[C@@H](CCC(N)=O)C(=O)N[C@@H](C)C(=O)N[C@@H](C)C(=O)NC(C)(C)C(=O)N[C@@H](CCC(=O)O)C(=O)N[C@@H](Cc1ccccc1)C(=O)N[C@H](C(=O)N[C@@H](CC(N)=O)C(=O)N[C@@H](Cc1c[nH]c2ccccc12)C(=O)N[C@@H](CC(C)C)C(=O)N[C@@H](CC(C)C)C(=O)N[C@@H](C)C(=O)NCC(=O)NCC(=O)N1CCC[C@H]1C(=O)N[C@@H](CO)C(=O)N[C@@H](CO)C(=O)NCC(=O)N[C@@H](C)C(=O)N1CCC[C@H]1C(=O)N1CCC[C@H]1C(=O)N1CCC[C@H]1C(=O)N[C@@H](CO)C(=O)N[C@@H](CCCCNC(=O)COCCOCCNC(=O)COCCOCCNC(=O)CC[C@H](NC(=O)CCCCCCCCCCCCCCCCCCC(=O)O)C(=O)O)C(N)=O)C(C)C (stereo partly drawn) [Compound 156] | > 1 µM | 0.001 to 0.01 µM | 95% | 0.001 to 0.01 µM | 95% | > 1 µM
